Earlier results as cited in patent US20050063935A1, “Adsorbent for cytokine, method of adsorptive removal, and apparatus adsorptive removal” (priority 2002, published 2005).

Conditions: octanol-water system; free ligand compound before immobilization

Structure (SMILES) | log P
CCCCN [n-butylamine] | 0.97
CCCCCCCCN [n-octylamine] | 2.90
